The text below walks through data of paper PMC11352961, “Peptide dendrimers transfecting CRISPR/Cas9 plasmid DNA: optimization and mechanism” (RSC Chemical Biology, 2024).

For series [1], the system named is HEK293 cells. The experiment in a line: Cell viability by PrestoBlue assay after transfection, HEK cells. In kind it is cell-based. The note with it: 4 h.
Series [2] concerns HEK293 cells. The class given is cell-based. The following applies: 1 h.
For series [3], the system named is HeLa cells. The experiment in a line: Cell viability by PrestoBlue assay after transfection, HeLa cells. In kind it is cell-based. The following applies: 4 h.
The nature of series [4]: in vitro. The following applies: isolated enzyme proteinase k, pH 8.

Bridge positions count the residues as written; N and C are the ends. Square brackets hold non-standard residues; d marks the D form. Side chains are listed from the residue outwards. Peptide text beside a SMILES is read from it. I, II: the chains in the order shown. * marks the point of attachment. Stearoyl = CCCCCCCCCCCCCCCCCC(=O)*

Regarding `CCCCCCCCCCCCCCCCCC(=O)NCCCC[C@H](NC(=O)[C@H](CCCCNC(=O)[C@H](CC(C)C)NC(=O)[C@H](CCCCN)NC(=O)[C@H](CCCCNC(=O)[C@H](CC(C)C)NC(=O)[C@H](CCCCN)NC(=O)[C@H](CCCCNC(=O)[C@H](CC(C)C)NC(=O)[C@@H](N)CCCCN)NC(=O)[C@H](CC(C)C)NC(=O)[C@@H](N)CCCCN)NC(=O)[C@H](CC(C)C)NC(=O)[C@H](CCCCN)NC(=O)[C@H](CCCCNC(=O)[C@H](CC(C)C)NC(=O)[C@@H](N)CCCCN)NC(=O)[C@H](CC(C)C)NC(=O)[C@@H](N)CCCCN)NC(=O)[C@H](CC(C)C)NC(=O)[C@H](CCCCN)NC(=O)[C@H](CCCCNC(=O)[C@H](CC(C)C)NC(=O)[C@H](CCCCN)NC(=O)[C@H](CCCCNC(=O)[C@H](CC(C)C)NC(=O)[C@@H](N)CCCCN)NC(=O)[C@H](CC(C)C)NC(=O)[C@@H](N)CCCCN)NC(=O)[C@H](CC(C)C)NC(=O)[C@H](CCCCN)NC(=O)[C@H](CCCCNC(=O)[C@H](CC(C)C)NC(=O)[C@@H](N)CCCCN)NC(=O)[C@H](CC(C)C)NC(=O)[C@@H](N)CCCCN)C(N)=O` [Z1] (I: H-KLK([Leu-Lys])KLKKLKK(Stearoyl)-NH2 / II: H-KLK([Leu-Lys])KLKKL / III: H-KLK([Leu-Lys])KL / IV: H-KLK([Leu-Lys])KL; amide I:6-IV:C, I:9-II:C, II:6-III:C), the “% viability HEK cells” value in series [1] is on record as 64 ± 7%. For the same compound, the “transfection of HEK cells with protease inhibition” value in series [2] is 42%. Besides, the “% viability HeLa cells” value in series [3] amounted to 51 ± 6%.
The corresponding values for `CCCCCCCCCCCCCCCCCC(=O)NCCCC[C@@H](NC(=O)[C@@H](CCCCNC(=O)[C@@H](CC(C)C)NC(=O)[C@@H](CCCCN)NC(=O)[C@@H](CCCCNC(=O)[C@@H](CC(C)C)NC(=O)[C@@H](CCCCN)NC(=O)[C@@H](CCCCNC(=O)[C@@H](CC(C)C)NC(=O)[C@H](N)CCCCN)NC(=O)[C@@H](CC(C)C)NC(=O)[C@H](N)CCCCN)NC(=O)[C@@H](CC(C)C)NC(=O)[C@@H](CCCCN)NC(=O)[C@@H](CCCCNC(=O)[C@@H](CC(C)C)NC(=O)[C@H](N)CCCCN)NC(=O)[C@@H](CC(C)C)NC(=O)[C@H](N)CCCCN)NC(=O)[C@@H](CC(C)C)NC(=O)[C@@H](CCCCN)NC(=O)[C@@H](CCCCNC(=O)[C@@H](CC(C)C)NC(=O)[C@@H](CCCCN)NC(=O)[C@@H](CCCCNC(=O)[C@@H](CC(C)C)NC(=O)[C@H](N)CCCCN)NC(=O)[C@@H](CC(C)C)NC(=O)[C@H](N)CCCCN)NC(=O)[C@@H](CC(C)C)NC(=O)[C@@H](CCCCN)NC(=O)[C@@H](CCCCNC(=O)[C@@H](CC(C)C)NC(=O)[C@H](N)CCCCN)NC(=O)[C@@H](CC(C)C)NC(=O)[C@H](N)CCCCN)C(N)=O` [Z26] (I: H-[dK][dL][dK]([dL-dK])[dK][dL][dK][dK][dL][dK][dK](Stearoyl)-NH2 / II: H-[dK][dL][dK]([dL-dK])[dK][dL][dK][dK][dL] / III: H-[dK][dL][dK]([dL-dK])[dK][dL] / IV: H-[dK][dL][dK]([dL-dK])[dK][dL]; amide I:6-IV:C, I:9-II:C, II:6-III:C) are 91.3 ± 0.2%, 51% and 91 ± 5%.
In the case of `CCCCCCCCCCCCCCCCCC(=O)NCCCC[C@@H](NC(=O)[C@@H](CCCCNC(=O)[C@@H](CC(C)C)NC(=O)[C@@H](CCCNC(=N)N)NC(=O)[C@@H](CCCCNC(=O)[C@@H](CC(C)C)NC(=O)[C@@H](CCCNC(=N)N)NC(=O)[C@@H](CCCCNC(=O)[C@@H](CC(C)C)NC(=O)[C@H](N)CCCNC(=N)N)NC(=O)[C@@H](CC(C)C)NC(=O)[C@H](N)CCCNC(=N)N)NC(=O)[C@@H](CC(C)C)NC(=O)[C@@H](CCCNC(=N)N)NC(=O)[C@@H](CCCCNC(=O)[C@@H](CC(C)C)NC(=O)[C@H](N)CCCNC(=N)N)NC(=O)[C@@H](CC(C)C)NC(=O)[C@H](N)CCCNC(=N)N)NC(=O)[C@@H](CC(C)C)NC(=O)[C@@H](CCCNC(=N)N)NC(=O)[C@@H](CCCCNC(=O)[C@@H](CC(C)C)NC(=O)[C@@H](CCCNC(=N)N)NC(=O)[C@@H](CCCCNC(=O)[C@@H](CC(C)C)NC(=O)[C@H](N)CCCNC(=N)N)NC(=O)[C@@H](CC(C)C)NC(=O)[C@H](N)CCCNC(=N)N)NC(=O)[C@@H](CC(C)C)NC(=O)[C@@H](CCCNC(=N)N)NC(=O)[C@@H](CCCCNC(=O)[C@@H](CC(C)C)NC(=O)[C@H](N)CCCNC(=N)N)NC(=O)[C@@H](CC(C)C)NC(=O)[C@H](N)CCCNC(=N)N)C(N)=O` [Z34] (I: H-[dR][dL][dK]([dL-dR])[dR][dL][dK][dR][dL][dK][dK](Stearoyl)-NH2 / II: H-[dR][dL][dK]([dL-dR])[dR][dL][dK][dR][dL] / III: H-[dR][dL][dK]([dL-dR])[dR][dL] / IV: H-[dR][dL][dK]([dL-dR])[dR][dL]; amide I:6-IV:C, I:9-II:C, II:6-III:C), in series [2], the “transfection of HEK cells with protease inhibition” value is given as 69%. In addition, the “% viability HeLa cells” value in series [3] came out at 94 ± 6%. For the same compound, in series [4], the share remaining at 1 h, 200 µM was found to be 100%; the amount remaining at 2 h, 200 µM is 97.7%; the share remaining at 3 h, 200 µM turned out to be 95.4%; the amount remaining at 12 h, 200 µM was 91.8%. In series [4], the amount remaining at 24 h, 200 µM was 101%.
Consider `CCCCCCCCCCCCCCCCCC(=O)NCCCC[C@@H](NC(=O)[C@@H](CCCCNC(=O)[C@@H](CC(C)C)NC(=O)[C@@H](CCCNC(=N)N)NC(=O)[C@@H](CCCCNC(=O)[C@@H](CC(C)C)NC(=O)[C@@H](CCCNC(=N)N)NC(=O)[C@@H](CCCCNC(=O)[C@@H](CC(C)C)NC(=O)[C@H](N)CCCNC(=N)N)NC(=O)[C@@H](CC(C)C)NC(=O)[C@H](N)CCCNC(=N)N)NC(=O)[C@@H](CC(C)C)NC(=O)[C@@H](CCCNC(=N)N)NC(=O)[C@@H](CCCCNC(=O)[C@@H](CC(C)C)NC(=O)[C@H](N)CCCNC(=N)N)NC(=O)[C@@H](CC(C)C)NC(=O)[C@H](N)CCCNC(=N)N)NC(=O)[C@@H](CC(C)C)NC(=O)[C@@H](CCCNC(=N)N)NC(=O)[C@@H](CCCCNC(=O)[C@@H](CC(C)C)NC(=O)[C@@H](CCCNC(=N)N)NC(=O)[C@@H](CCCCNC(=O)[C@@H](CC(C)C)NC(=O)[C@H](N)CCCNC(=N)N)NC(=O)[C@@H](CC(C)C)NC(=O)[C@H](N)CCCNC(=N)N)NC(=O)[C@@H](CC(C)C)NC(=O)[C@@H](CCCNC(=N)N)NC(=O)[C@@H](CCCCNC(=O)[C@@H](CC(C)C)NC(=O)[C@H](N)CCCNC(=N)N)NC(=O)[C@@H](CC(C)C)NC(=O)[C@H](N)CCCNC(=N)N)C(=O)N[C@H](C)C(N)=O` [Z35] (I: H-[dR][dL][dK]([dL-dR])[dR][dL][dK][dR][dL][dK][dK](Stearoyl)[dA]-NH2 / II: H-[dR][dL][dK]([dL-dR])[dR][dL][dK][dR][dL] / III: H-[dR][dL][dK]([dL-dR])[dR][dL] / IV: H-[dR][dL][dK]([dL-dR])[dR][dL]; amide I:6-IV:C, I:9-II:C, II:6-III:C), for which the “% viability HEK cells” value in series [1] was 72 ± 5%. Moreover, the “% viability HeLa cells” value in series [3] was determined as 94 ± 6%.
The corresponding values for `CCCCCCCCCCCCCCCCCC(=O)NCCCC[C@@H](NC(=O)[C@@H](CCCCNC(=O)[C@@H](CC(C)C)NC(=O)[C@@H](CC(C)C)NC(=O)[C@@H](CCCCNC(=O)[C@@H](CC(C)C)NC(=O)[C@@H](CCCNC(=N)N)NC(=O)[C@@H](CCCCNC(=O)[C@@H](CC(C)C)NC(=O)[C@H](N)CCCNC(=N)N)NC(=O)[C@@H](CC(C)C)NC(=O)[C@H](N)CCCNC(=N)N)NC(=O)[C@@H](CC(C)C)NC(=O)[C@@H](CCCNC(=N)N)NC(=O)[C@@H](CCCCNC(=O)[C@@H](CC(C)C)NC(=O)[C@H](N)CCCNC(=N)N)NC(=O)[C@@H](CC(C)C)NC(=O)[C@H](N)CCCNC(=N)N)NC(=O)[C@@H](CC(C)C)NC(=O)[C@@H](CC(C)C)NC(=O)[C@@H](CCCCNC(=O)[C@@H](CC(C)C)NC(=O)[C@@H](CCCNC(=N)N)NC(=O)[C@@H](CCCCNC(=O)[C@@H](CC(C)C)NC(=O)[C@H](N)CCCNC(=N)N)NC(=O)[C@@H](CC(C)C)NC(=O)[C@H](N)CCCNC(=N)N)NC(=O)[C@@H](CC(C)C)NC(=O)[C@@H](CCCNC(=N)N)NC(=O)[C@@H](CCCCNC(=O)[C@@H](CC(C)C)NC(=O)[C@H](N)CCCNC(=N)N)NC(=O)[C@@H](CC(C)C)NC(=O)[C@H](N)CCCNC(=N)N)C(N)=O` [Z36] (I: H-[dR][dL][dK]([dL-dR])[dR][dL][dK][dL][dL][dK][dK](Stearoyl)-NH2 / II: H-[dR][dL][dK]([dL-dR])[dR][dL][dK][dL][dL] / III: H-[dR][dL][dK]([dL-dR])[dR][dL] / IV: H-[dR][dL][dK]([dL-dR])[dR][dL]; amide I:6-IV:C, I:9-II:C, II:6-III:C) are 87 ± 2% and 92 ± 6%.
With `CCCCCCCCCCCCCCCCCC(=O)NCCCC[C@@H](NC(=O)[C@@H](CCCCNC(=O)[C@@H](CC(C)C)NC(=O)[C@@H](CC(C)C)NC(=O)[C@@H](CCCCNC(=O)[C@@H](CC(C)C)NC(=O)[C@@H](CC(C)C)NC(=O)[C@@H](CCCCNC(=O)[C@@H](CC(C)C)NC(=O)[C@H](N)CCCNC(=N)N)NC(=O)[C@@H](CC(C)C)NC(=O)[C@H](N)CCCNC(=N)N)NC(=O)[C@@H](CC(C)C)NC(=O)[C@@H](CC(C)C)NC(=O)[C@@H](CCCCNC(=O)[C@@H](CC(C)C)NC(=O)[C@H](N)CCCNC(=N)N)NC(=O)[C@@H](CC(C)C)NC(=O)[C@H](N)CCCNC(=N)N)NC(=O)[C@@H](CC(C)C)NC(=O)[C@@H](CC(C)C)NC(=O)[C@@H](CCCCNC(=O)[C@@H](CC(C)C)NC(=O)[C@@H](CC(C)C)NC(=O)[C@@H](CCCCNC(=O)[C@@H](CC(C)C)NC(=O)[C@H](N)CCCNC(=N)N)NC(=O)[C@@H](CC(C)C)NC(=O)[C@H](N)CCCNC(=N)N)NC(=O)[C@@H](CC(C)C)NC(=O)[C@@H](CC(C)C)NC(=O)[C@@H](CCCCNC(=O)[C@@H](CC(C)C)NC(=O)[C@H](N)CCCNC(=N)N)NC(=O)[C@@H](CC(C)C)NC(=O)[C@H](N)CCCNC(=N)N)C(N)=O` [Z37] (I: H-[dR][dL][dK]([dL-dR])[dL][dL][dK][dL][dL][dK][dK](Stearoyl)-NH2 / II: H-[dR][dL][dK]([dL-dR])[dL][dL][dK][dL][dL] / III: H-[dR][dL][dK]([dL-dR])[dL][dL] / IV: H-[dR][dL][dK]([dL-dR])[dL][dL]; amide I:6-IV:C, I:9-II:C, II:6-III:C), in series [1], the “% viability HEK cells” value was determined as 103 ± 1%. The “% viability HeLa cells” value in series [3] is given as 95 ± 5%.
